# Assay results from ChEMBL document CHEMBL4017476, “Synthesis of novel 5,6-dehydrokawain analogs as osteogenic inducers and their action mechanisms” (Bioorg Med Chem Lett, 2017).
# Activity calls are given as the source filed them. The rule behind the calls is not given here.
# Tested on: MC3T3-E1
# Experiment: Osteogenic activity in mouse MC3T3-E1 cells assessed as increase in mineralization at 10 uM measured after 10 days by alizarin red S staining based assay
# Type: functional, cell-based
# Conditions: not given
row,SMILES,Activity
1,COc1cc(/C=C/c2ccc(C(C)(C)C)cc2)oc(=O)c1,Active
2,CCCCc1ccc(/C=C/c2cc(OC)cc(=O)o2)cc1,Active

# Tested on: MC3T3-E1
# Experiment: Osteogenic activity in mouse MC3T3-E1 cells assessed as increase in mineralization at 30 uM measured after 10 days in presence of BMP2 inhibitor noggin by alizarin red S staining based assay
# Type: functional, cell-based
# Conditions: not given
row,SMILES,Activity
1,CCc1ccc(/C=C/c2cc(OC)cc(=O)o2)cc1,inactive
2,CCCCc1ccc(/C=C/c2cc(OC)cc(=O)o2)cc1,inactive

# Species: Mus musculus
# Experiment: Activation of BMP signaling pathway in mouse MC3T3-E1 cells assessed as increase in Runx2 mRNA expression after 2 days by SYBR green-dye based RT-PCR method
# Type: cell-based
# Conditions: not given
row,SMILES,Activity
1,CCc1ccc(/C=C/c2cc(OC)cc(=O)o2)cc1,Dose-dependent effect
2,CCCCc1ccc(/C=C/c2cc(OC)cc(=O)o2)cc1,Dose-dependent effect

# Species: Mus musculus
# Experiment: Activation of BMP signaling pathway in mouse MC3T3-E1 cells assessed as increase in Alpl mRNA expression after 2 days by SYBR green-dye based RT-PCR method
# Type: cell-based
# Conditions: not given
row,SMILES,Activity
1,CCc1ccc(/C=C/c2cc(OC)cc(=O)o2)cc1,Dose-dependent effect
2,CCCCc1ccc(/C=C/c2cc(OC)cc(=O)o2)cc1,Dose-dependent effect

# Target: T1, MAP kinase p38 (Mus musculus) (UniProt P47811+O08911+Q9WUI1+Q9Z1B7)
# Experiment: Induction of p38 MAPK phosphorylation in mouse MC3T3-E1 cells assessed as ratio of phosphorylated p38 to unphosphorylated p38 protein level at 30 uM measured after 5 mins by Western blot analysis relative to control
# Type: cell-based
# Conditions: not given
row,SMILES,Ratio
1,CCc1ccc(/C=C/c2cc(OC)cc(=O)o2)cc1,1.8
2,CCCCc1ccc(/C=C/c2cc(OC)cc(=O)o2)cc1,1.6

# Target: T1, MAP kinase p38 (Mus musculus)
# Experiment: Induction of p38 MAPK phosphorylation in mouse MC3T3-E1 cells assessed as ratio of phosphorylated p38 to unphosphorylated p38 protein level at 30 uM measured after 15 mins by Western blot analysis relative to control
# Type: cell-based
# Conditions: not given
row,SMILES,Ratio
1,CCc1ccc(/C=C/c2cc(OC)cc(=O)o2)cc1,1.7
2,CCCCc1ccc(/C=C/c2cc(OC)cc(=O)o2)cc1,1.5

# Species: Mus musculus
# Experiment: Activation of BMP signaling pathway in mouse MC3T3-E1 cells assessed as increase in Bglap mRNA expression after 2 days by SYBR green-dye based RT-PCR method
# Type: cell-based
# Conditions: not given
row,SMILES,Activity
1,CCc1ccc(/C=C/c2cc(OC)cc(=O)o2)cc1,Dose-dependent effect
2,CCCCc1ccc(/C=C/c2cc(OC)cc(=O)o2)cc1,Dose-dependent effect

# Tested on: RAW264
# Experiment: Inhibition of RANKL-stimulated osteoclastogenesis in mouse RAW264 cells assessed as reduction in TRAP activity at 20 uM measured after 72 hrs by microscopic analysis
# Type: functional, cell-based
# Conditions: not given
row,SMILES,inhibition
1,CC(C)Oc1ccc2c(=O)c(-c3ccccc3)coc2c1,Active
2,COc1cc(/C=C/c2ccccc2)oc(=O)c1 [DESMETHOXYYANGONIN],inactive
3,CCc1ccc(/C=C/c2cc(OC)cc(=O)o2)cc1,Active
4,CCCCc1ccc(/C=C/c2cc(OC)cc(=O)o2)cc1,Active

# Target: T2, SMAD1/5/9 (Mus musculus) (UniProt P70340+P97454+Q9JIW5)
# Experiment: Induction of Smad1/5/8 phosphorylation in mouse MC3T3-E1 cells assessed as ratio of phosphorylated Smad1/5/8 to actin beta protein level at 30 uM measured after 30 mins by Western blot analysis relative to control
# Type: cell-based
# Conditions: not given
row,SMILES,Ratio
1,CCc1ccc(/C=C/c2cc(OC)cc(=O)o2)cc1,1
2,CCCCc1ccc(/C=C/c2cc(OC)cc(=O)o2)cc1,1.1

# Tested on: MC3T3-E1
# Experiment: Osteogenic activity in mouse MC3T3-E1 cells assessed as increase in mineralization at 30 uM measured after 10 days in presence of type-1 BMP receptor kinase inhibitor LDN-193189 by alizarin red S staining based assay
# Type: functional, cell-based
# Conditions: not given
row,SMILES,Activity
1,CCc1ccc(/C=C/c2cc(OC)cc(=O)o2)cc1,inactive
2,CCCCc1ccc(/C=C/c2cc(OC)cc(=O)o2)cc1,inactive

# Target: T1, MAP kinase p38 (Mus musculus)
# Experiment: Induction of p38 MAPK phosphorylation in mouse MC3T3-E1 cells assessed as ratio of phosphorylated p38 to unphosphorylated p38 protein level at 30 uM measured after 30 mins by Western blot analysis relative to control
# Type: cell-based
# Conditions: not given
row,SMILES,Ratio
1,CCc1ccc(/C=C/c2cc(OC)cc(=O)o2)cc1,1.2
2,CCCCc1ccc(/C=C/c2cc(OC)cc(=O)o2)cc1,1.1

# Tested on: RAW264
# Experiment: Inhibition of RANKL-stimulated osteoclastogenesis in mouse RAW264 cells assessed as reduction in TRAP-positive multinucleated cells at 20 uM measured after 72 hrs by TRAP staining based microscopic analysis
# Type: functional, cell-based
# Conditions: not given
row,SMILES,inhibition
1,CCc1ccc(/C=C/c2cc(OC)cc(=O)o2)cc1,Active
2,CCCCc1ccc(/C=C/c2cc(OC)cc(=O)o2)cc1,Active

# Tested on: MC3T3-E1
# Experiment: Osteogenic activity in mouse MC3T3-E1 cells assessed as increase in mineralization at 60 uM measured after 10 days by alizarin red S staining based assay
# Type: functional, cell-based
# Conditions: not given
row,SMILES,Activity
1,COc1cc(/C=C/c2ccccc2)oc(=O)c1 [DESMETHOXYYANGONIN],Active

# Tested on: MC3T3-E1
# Experiment: Cytotoxicity against mouse MC3T3-E1 cells assessed as cell number at 60 uM measured after 4 days by WST-8 assay relative to control
# Type: cell-based
# Conditions: mc3t3-e1, 96 h
row,SMILES,fold change (FC)
1,COc1cc(/C=C/c2ccccc2)oc(=O)c1 [DESMETHOXYYANGONIN],0.85 to 1.25

# Species: Mus musculus
# Experiment: Activation of BMP signaling pathway in mouse MC3T3-E1 cells assessed as increase in Runx2 mRNA expression at 10 uM after 2 days by SYBR green-dye based RT-PCR method relative to control
# Type: cell-based
# Conditions: not given
row,SMILES,fold change (FC)
1,CCc1ccc(/C=C/c2cc(OC)cc(=O)o2)cc1,1.5
2,CCCCc1ccc(/C=C/c2cc(OC)cc(=O)o2)cc1,1.42

# Target: T2, SMAD1/5/9 (Mus musculus)
# Experiment: Induction of Smad1/5/8 phosphorylation in mouse MC3T3-E1 cells assessed as ratio of phosphorylated Smad1/5/8 to actin beta protein level at 30 uM measured after 15 mins by Western blot analysis relative to control
# Type: cell-based
# Conditions: not given
row,SMILES,Ratio
1,CCc1ccc(/C=C/c2cc(OC)cc(=O)o2)cc1,1
2,CCCCc1ccc(/C=C/c2cc(OC)cc(=O)o2)cc1,1.1

# Tested on: MC3T3-E1
# Experiment: Osteogenic activity in mouse MC3T3-E1 cells assessed as increase in ALP activity at 30 uM measured after 4 days relative to control
# Type: functional
# Conditions: not given
SMILES,Activity,fold change (FC)
CCc1ccccc1/C=C/c1cc(OC)cc(=O)o1,inactive,–
C#Cc1ccc(/C=C/c2cc(OC)cc(=O)o2)cc1,–,1.32 - 2.87
COc1ccc(/C=C/c2cc(OC)cc(=O)o2)cc1 [YANGONIN],inactive,–
CCc1cccc(/C=C/c2cc(OC)cc(=O)o2)c1,Active,–
CCOc1ccc(/C=C/c2cc(OC)cc(=O)o2)cc1,–,1.32 - 2.87
COc1cc(/C=C/c2ccc(C(F)(F)F)cc2)oc(=O)c1,–,1.32 - 2.87
COc1cc(/C=C/C2CCCC2)oc(=O)c1,inactive,–
CCc1ccc(/C=C/c2cc(OC)cc(=O)o2)cc1,–,1.32 - 2.87
CCCCc1ccc(/C=C/c2cc(OC)cc(=O)o2)cc1,Active,–

# Tested on: MC3T3-E1
# Experiment: Osteogenic activity in mouse MC3T3-E1 cells assessed as increase in mineralization at 30 uM measured after 10 days by alizarin red S staining based assay
# Type: functional, cell-based
# Conditions: not given
row,SMILES,Activity
1,CCc1ccccc1/C=C/c1cc(OC)cc(=O)o1,inactive
2,C#Cc1ccc(/C=C/c2cc(OC)cc(=O)o2)cc1,Active
3,COc1ccc(/C=C/c2cc(OC)cc(=O)o2)cc1 [YANGONIN],inactive
4,CCc1cccc(/C=C/c2cc(OC)cc(=O)o2)c1,Active
5,CCOc1ccc(/C=C/c2cc(OC)cc(=O)o2)cc1,Active
6,COc1cc(/C=C/c2ccc(C(F)(F)F)cc2)oc(=O)c1,Active
7,COc1cc(/C=C/C2CCCC2)oc(=O)c1,inactive
8,CCc1ccc(/C=C/c2cc(OC)cc(=O)o2)cc1,Active
9,CCCCc1ccc(/C=C/c2cc(OC)cc(=O)o2)cc1,Active

# Tested on: MC3T3-E1
# Experiment: Osteogenic activity in mouse MC3T3-E1 cells assessed as increase in ALP activity at 10 uM measured after 4 days relative to control
# Type: functional, cell-based
# Conditions: not given
row,SMILES,Activity
1,COc1cc(/C=C/c2ccc(C(C)(C)C)cc2)oc(=O)c1,Active
2,CCCCc1ccc(/C=C/c2cc(OC)cc(=O)o2)cc1,Active

# Species: Mus musculus
# Experiment: Activation of BMP signaling pathway in mouse MC3T3-E1 cells assessed as increase in Osterix mRNA expression at 10 uM after 2 days by SYBR green-dye based RT-PCR method relative to control
# Type: cell-based
# Conditions: not given
row,SMILES,fold change (FC)
1,CCc1ccc(/C=C/c2cc(OC)cc(=O)o2)cc1,2.61
2,CCCCc1ccc(/C=C/c2cc(OC)cc(=O)o2)cc1,2.41

# Target: T2, SMAD1/5/9 (Mus musculus)
# Experiment: Induction of Smad1/5/8 phosphorylation in mouse MC3T3-E1 cells assessed as ratio of phosphorylated Smad1/5/8 to actin beta protein level at 30 uM measured after 5 mins by Western blot analysis relative to control
# Type: cell-based
# Conditions: not given
row,SMILES,Ratio
1,CCc1ccc(/C=C/c2cc(OC)cc(=O)o2)cc1,1.1
2,CCCCc1ccc(/C=C/c2cc(OC)cc(=O)o2)cc1,1.1

# Species: Mus musculus
# Experiment: Activation of BMP signaling pathway in mouse MC3T3-E1 cells assessed as increase in Bglap mRNA expression at 10 uM after 2 days by SYBR green-dye based RT-PCR method relative to control
# Type: cell-based
# Conditions: not given
row,SMILES,fold change (FC)
1,CCc1ccc(/C=C/c2cc(OC)cc(=O)o2)cc1,1.92
2,CCCCc1ccc(/C=C/c2cc(OC)cc(=O)o2)cc1,1.33

# Tested on: MC3T3-E1
# Experiment: Osteogenic activity in mouse MC3T3-E1 cells assessed as increase in ALP activity at 60 uM measured after 4 days relative to control
# Type: functional
# Conditions: not given
row,SMILES,fold change (FC)
1,COc1cc(/C=C/c2ccccc2)oc(=O)c1 [DESMETHOXYYANGONIN],1.25

# Tested on: MC3T3-E1
# Experiment: Osteogenic activity in mouse MC3T3-E1 cells assessed as increase in mineralization at 0.1 to 60 uM measured after 10 days by alizarin red S staining based assay
# Type: functional, cell-based
# Conditions: not given
row,SMILES,Activity
1,COc1cc(/C=C/c2ccccc2)oc(=O)c1 [DESMETHOXYYANGONIN],Active

# Species: Mus musculus
# Experiment: Activation of BMP signaling pathway in mouse MC3T3-E1 cells assessed as increase in Alpl mRNA expression at 10 uM after 2 days by SYBR green-dye based RT-PCR method relative to control
# Type: cell-based
# Conditions: not given
row,SMILES,fold change (FC)
1,CCc1ccc(/C=C/c2cc(OC)cc(=O)o2)cc1,2.23
2,CCCCc1ccc(/C=C/c2cc(OC)cc(=O)o2)cc1,2.09

# Tested on: MC3T3-E1
# Experiment: Osteogenic activity in mouse MC3T3-E1 cells assessed as increase in mineralization at 30 uM measured after 10 days in presence of p38 MAPK inhibitor SB203580 by alizarin red S staining based assay
# Type: functional, cell-based
# Conditions: not given
row,SMILES,Activity
1,CCc1ccc(/C=C/c2cc(OC)cc(=O)o2)cc1,inactive
2,CCCCc1ccc(/C=C/c2cc(OC)cc(=O)o2)cc1,inactive

# Species: Mus musculus
# Experiment: Activation of BMP signaling pathway in mouse MC3T3-E1 cells assessed as increase in Osterix mRNA expression after 2 days by SYBR green-dye based RT-PCR method
# Type: cell-based
# Conditions: not given
row,SMILES,Activity
1,CCc1ccc(/C=C/c2cc(OC)cc(=O)o2)cc1,Dose-dependent effect
2,CCCCc1ccc(/C=C/c2cc(OC)cc(=O)o2)cc1,Dose-dependent effect

# Tested on: MC3T3-E1
# Experiment: Cytotoxicity against mouse MC3T3-E1 cells assessed as cell number at 30 uM measured after 4 days by WST-8 assay relative to control
# Type: cell-based
# Conditions: mc3t3-e1, 96 h
row,SMILES,fold change (FC)
1,CCc1ccccc1/C=C/c1cc(OC)cc(=O)o1,0.85 to 1.25
2,C#Cc1ccc(/C=C/c2cc(OC)cc(=O)o2)cc1,0.85 to 1.25
3,COc1ccc(/C=C/c2cc(OC)cc(=O)o2)cc1 [YANGONIN],0.85 to 1.25
4,COc1cc(/C=C/c2ccccc2)oc(=O)c1 [DESMETHOXYYANGONIN],0.85 to 1.25
5,CCc1cccc(/C=C/c2cc(OC)cc(=O)o2)c1,0.85 to 1.25
6,CCOc1ccc(/C=C/c2cc(OC)cc(=O)o2)cc1,0.85 to 1.25
7,COc1cc(/C=C/c2ccc(C(F)(F)F)cc2)oc(=O)c1,0.85 to 1.25
8,COc1cc(/C=C/C2CCCC2)oc(=O)c1,0.85 to 1.25
9,CCc1ccc(/C=C/c2cc(OC)cc(=O)o2)cc1,0.85 to 1.25
10,COc1cc(/C=C/c2ccc(C(C)(C)C)cc2)oc(=O)c1,0.85 to 1.25
11,CCCCc1ccc(/C=C/c2cc(OC)cc(=O)o2)cc1,0.85 to 1.25
